The values below come from PubChem BioAssay AID330 (DTP/NCI, 2004).

SMILES strings stand for the structures. Several values for one entry are separate records, joined by “and”; a condition that tells them apart may be missing. Equal values may be shown once. Inconclusive results and toxic doses are left out.

This test concerns P388 leukemia ip, CD2F1 mice, survival T/C. Briefly: NCI In Vivo Anticancer Drug Screen. Data for tumor model P388 Leukemia (intraperitoneal) in CD2F1 (CDF1) mice. To be noted: endpoint: median survival time, higher = longer survival. The essentials:
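Mice carrying the transplanted tumor received test compound or vehicle. Survival was recorded in each group, and the value is the treated-group measurement divided by that of the vehicle-treated control group.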

The mark [1] stands for this setting: dose: 50.0 mg/kg/injection, schedule: Q01DX009 (ip), vehicle: Klucel (hydroxypropylcellulose) (HPC).
[2] abbreviates: dose: 100.0 mg/kg/injection, schedule: Q01DX009 (ip), vehicle: Klucel (hydroxypropylcellulose) (HPC).
The mark [3] stands for this setting: dose: 200.0 mg/kg/injection, schedule: Q01DX009 (ip), vehicle: Klucel (hydroxypropylcellulose) (HPC).
The mark [4] stands for this setting: dose: 100.0 mg/kg/injection, schedule: Q04DX002 (ip), vehicle: saline with Tween-80.
The mark [5] stands for this setting: dose: 12.5 mg/kg/injection, schedule: Q01DX009 (ip), vehicle: water.
The mark [6] stands for this setting: dose: 25.0 mg/kg/injection, schedule: Q01DX009 (ip), vehicle: water.
The mark [7] stands for this setting: dose: 50.0 mg/kg/injection, schedule: Q01DX009 (ip), vehicle: water.
Where [8] appears, read: dose: 100.0 mg/kg/injection, schedule: Q01DX009 (ip), vehicle: water.
[9] abbreviates: dose: 50.0 mg/kg/injection, schedule: Q01DX009 (ip), vehicle: saline.
Where [10] appears, read: dose: 100.0 mg/kg/injection, schedule: Q01DX009 (ip), vehicle: saline.
Where [11] appears, read: dose: 60.0 mg/kg/injection, schedule: Q01DX005 (ip), vehicle: saline with Tween-80.
The mark [12] stands for this setting: dose: 120.0 mg/kg/injection, schedule: Q01DX005 (ip), vehicle: saline with Tween-80.
[13] abbreviates: dose: 240.0 mg/kg/injection, schedule: Q01DX005 (ip), vehicle: saline with Tween-80.

As to `COC1c2ccccc2C=CN1C#N` (configuration not stated), the T/C is 105 % of control (dose: 50.0 mg/kg/injection, schedule: Q01DX005 (ip), vehicle: distilled water + Tween-80 + alcohol) and 107 % of control (dose: 100.0 mg/kg/injection, schedule: Q01DX005 (ip), vehicle: distilled water + Tween-80 + alcohol).
As for `CN1CCN(c2nc3cccnc3s2)CC1`, the T/C runs as follows: (dose: 25.0 mg/kg/injection, schedule: Q04DX003 (ip), vehicle: saline with Tween-80) 106 % of control; (dose: 50.0 mg/kg/injection, schedule: Q04DX003 (ip), vehicle: saline with Tween-80) 101 % of control; (dose: 100.0 mg/kg/injection, schedule: Q04DX003 (ip), vehicle: saline with Tween-80) 100 % of control.
`COc1cc2c(cc1O)CCCCC2O` (configuration not stated): the T/C is, setting by setting: (dose: 6.25 mg/kg/injection, schedule: Q01DX009 (ip), vehicle: DMSO) 94 % of control; (dose: 12.5 mg/kg/injection, schedule: Q01DX009 (ip), vehicle: DMSO) 102 % of control; (dose: 25.0 mg/kg/injection, schedule: Q01DX009 (ip), vehicle: DMSO) 87 % of control; under setting [1], 94 % of control; under setting [2], 97 % of control; under setting [3], 94 % of control.
Take `O=C1Cc2csc3nc(=O)cc(n23)N1`: the T/C reads like this: (dose: 50.0 mg/kg/injection, schedule: Q01DX005 (ip), vehicle: saline) 94 % of control; (dose: 100.0 mg/kg/injection, schedule: Q01DX005 (ip), vehicle: saline) 97 % of control; (dose: 200.0 mg/kg/injection, schedule: Q01DX005 (ip), vehicle: saline) 88 % of control.
On to `C/C(=N/OC1=CC(=O)CC(C)(C)C1)c1ccccc1`, for which the T/C was 104 % of control (dose: 50.0 mg/kg/injection, schedule: Q01DX005 (ip), vehicle: saline with Tween-80); 104 % of control (dose: 100.0 mg/kg/injection, schedule: Q01DX005 (ip), vehicle: saline with Tween-80); 99 % of control (dose: 200.0 mg/kg/injection, schedule: Q01DX005 (ip), vehicle: saline with Tween-80).
Turning to `CC(C)(O)c1ccccc1[S+]1OC(C)(C)c2ccccc21` (configuration not stated), the T/C was 109 % of control under setting [4]; 112 % of control (dose: 200.0 mg/kg/injection, schedule: Q04DX002 (ip), vehicle: saline with Tween-80); 109 % of control (dose: 400.0 mg/kg/injection, schedule: Q04DX002 (ip), vehicle: saline with Tween-80).
In the case of `CCOc1c(N=Nc2ccccc2C)c(C)nn1C(=S)SC`, the T/C is 95 % of control (dose: 60.0 mg/kg/injection, schedule: Q01DX005 (ip), vehicle: Klucel + Tween-80) and 92 % of control (dose: 120.0 mg/kg/injection, schedule: Q01DX005 (ip), vehicle: Klucel + Tween-80).
For `COc1cccc(C(=O)c2ccncc2)c1OC`, the T/C is 100 % of control under setting [5]; 100 % of control under setting [6]; 103 % of control under setting [7]; 104 % of control under setting [8]; 100 % of control (dose: 200.0 mg/kg/injection, schedule: Q01DX009 (ip), vehicle: water).
In the case of `O=c1cc(CCl)occ1O`, the T/C is, setting by setting: under setting [9], 100 % of control and 113 % of control; under setting [10], 101 % of control and 103 % of control; (dose: 200.0 mg/kg/injection, schedule: Q01DX009 (ip), vehicle: saline) 100 % of control and 113 % of control; (dose: 400.0 mg/kg/injection, schedule: Q01DX009 (ip), vehicle: saline) 110 % of control and 95 % of control.
Take `CCN(CC)CCN1C(=O)NC2(CCCCC2)C1=O`: the T/C under setting [11] is 101 % of control, the T/C under setting [12] is 100 % of control and the T/C under setting [13] was 99 % of control.
For `COc1cc2cc3c4cc(OC)c(OC)cc4cc[n+]3c(C)c2cc1OC` (tested in a mixture with another compound), the T/C reads like this: under setting [5], 154 % of control; (dose: 16.0 mg/kg/injection, schedule: Q01DX009 (ip), vehicle: water) 106 % of control; (dose: 16.0 mg/kg/injection, schedule: Q01DX009 (sc), vehicle: water) 108 % of control; under setting [6], 158 % of control and 163 % of control and 172 % of control; (dose: 25.9 mg/kg/injection, schedule: Q04DX003 (ip), vehicle: water) 118 % of control; (dose: 32.0 mg/kg/injection, schedule: Q01DX009 (ip), vehicle: water) 105 % of control. Moreover, the T/C by setting is: (dose: 32.0 mg/kg/injection, schedule: Q01DX009 (sc), vehicle: water) 118 % of control; (dose: 43.2 mg/kg/injection, schedule: Q04DX003 (ip), vehicle: water) 123 % of control; under setting [9], 191 % of control; under setting [7], 200 % of control; (dose: 50.0 mg/kg/injection, schedule: Q04DX003 (ip), vehicle: water) 152 % of control and 171 % of control; (dose: 64.0 mg/kg/injection, schedule: Q01DX009 (sc), vehicle: water) 123 % of control. In addition, the T/C was 90 % of control under setting [10]; 200 % of control under setting [8]; 150 % of control (dose: 100.0 mg/kg/injection, schedule: Q04DX003 (ip), vehicle: saline); 158 % of control and 162 % of control and 187 % of control (dose: 100.0 mg/kg/injection, schedule: Q04DX003 (ip), vehicle: water); 118 % of control (dose: 128.0 mg/kg/injection, schedule: Q01DX009 (ip), vehicle: water); 115 % of control (dose: 128.0 mg/kg/injection, schedule: Q01DX009 (sc), vehicle: water). Also, the T/C is, setting by setting: (dose: 200.0 mg/kg/injection, schedule: Q04DX003 (ip), vehicle: saline with Tween-80) 183 % of control; (dose: 200.0 mg/kg/injection, schedule: Q04DX003 (ip), vehicle: saline) 184 % of control; (dose: 256.0 mg/kg/injection, schedule: Q01DX009 (ip), vehicle: water) 105 % of control; (dose: 512.0 mg/kg/injection, schedule: Q01DX009 (ip), vehicle: water) 89 % of control.
For the compound `CSc1cccc(NC(=O)Oc2cccnc2)c1`, the T/C by setting is: under setting [1], 103 % of control; under setting [2], 100 % of control; under setting [3], 100 % of control.
For the compound `ClCC(OCc1ccccc1)OCc1ccccc1`, the T/C (dose: 12.5 mg/kg/injection, schedule: Q01DX009 (ip), vehicle: other) was 114 % of control; the T/C (dose: 25.0 mg/kg/injection, schedule: Q01DX009 (ip), vehicle: other) was 100 % of control; the T/C (dose: 50.0 mg/kg/injection, schedule: Q01DX009 (ip), vehicle: other) is 100 % of control; the T/C (dose: 100.0 mg/kg/injection, schedule: Q01DX009 (ip), vehicle: other) is 111 % of control; the T/C (dose: 200.0 mg/kg/injection, schedule: Q01DX009 (ip), vehicle: other) was 119 % of control.
Take `COC(=O)NC(=O)CCC(=O)O`: the T/C was 104 % of control (dose: 12.5 mg/kg/injection, schedule: Q01DX009 (ip), vehicle: saline); 97 % of control (dose: 25.0 mg/kg/injection, schedule: Q01DX009 (ip), vehicle: saline); 100 % of control and 103 % of control under setting [9].
In the case of `O=C(O)CCCc1ccccc1[N+](=O)[O-]`, the T/C is 105 % of control (dose: 50.0 mg/kg/injection, schedule: Q01DX009 (ip), vehicle: saline with Tween-80); 105 % of control (dose: 100.0 mg/kg/injection, schedule: Q01DX009 (ip), vehicle: saline with Tween-80); 103 % of control (dose: 200.0 mg/kg/injection, schedule: Q01DX009 (ip), vehicle: saline with Tween-80); 105 % of control (dose: 400.0 mg/kg/injection, schedule: Q01DX009 (ip), vehicle: saline with Tween-80).
`C1OCN2CSCC12` (configuration not stated): the T/C under setting [4] is 116 % of control.
With `Cc1ccc(S(=O)(=O)C(CCS(C)(=O)=O)C(=O)c2ccccc2)cc1` (configuration not stated), the T/C runs as follows: under setting [11], 100 % of control and 93 % of control; under setting [12], 92 % of control; under setting [13], 88 % of control and 90 % of control and 91 % of control.
Take `Cc1c(OCC(=O)N/N=C/c2ccc(N(CCCl)CCCl)cc2)ccc2c(=O)c3ccccc3oc12`: the T/C was 96 % of control (dose: 60.0 mg/kg/injection, schedule: Q01DX005 (ip), vehicle: Klucel (hydroxypropylcellulose) (HPC)) and 98 % of control (dose: 120.0 mg/kg/injection, schedule: Q01DX005 (ip), vehicle: Klucel (hydroxypropylcellulose) (HPC)).
